Test results: patent US6905839B2, “In vivo phenotyping for human cytochrome P450 3A activity” (priority 2002, dated 2005)

Legend:
[1] = test system: CYP3A; conditions: pretreatment with 500-mg of clarithromycin twice a day for 7 days; cited from earlier work
[2] = test system: CYP3A; conditions: male, human, in vivo
Protocol: The subject was not receiving any medication. […] Urine samples were obtained at a timed period (0-2, 2-4, 4-6, 6-8, 8-10, and 10-12) and the volume of the urine samples was noted. The recommended frequency of blood sampling is at least one time during a 2-hour urine collection. Urinary concentrations of cortisol and 6β-hydroxycortisol and plasma concentrations of cortisol were determined by HPLC and GC-MS, respectively. “The endogenous metabolic clearance (CLm(6β)-endo)” was calculated by Equation 4.
c) The fractional metabolic clearance for the 6β-hydroxylation of endogenous cortisol (CLm(6β)) is expressed as the amount of urinary excreted 6β-hydroxycortisol (X(6β)) divided by the area under the concentration-time curve of cortisol (AUC(F)); that is, CLm(6β)=X(6β)/AUC(F).

CC[C@H]1OC(=O)[C@H](C)[C@@H](O[C@H]2C[C@@](C)(OC)[C@@H](O)[C@H](C)O2)[C@H](C)[C@@H](O[C@@H]2O[C@H](C)C[C@H](N(C)C)[C@H]2O)[C@](C)(OC)C[C@@H](C)C(=O)[C@H](C)[C@@H](O)[C@]1(C)O [clarithromycin]
midazolam sleep time [1]: doubling
reduction in the systemic clearance of midazolam [1]: 64%
variation of CLm(6β)-endo values during treatment [2]: 1.2 fold
